We go through nine compounds from patent EP0727211A1, “Use of src SH2 specific compounds to treat a bone resorption disease” (SMITHKLINE BEECHAM CORPORATION, priority 1995, dated 1996).

The experiment concerns the target T1, human p85 SH2 domain (Homo sapiens, UniProt P27986).
T1 construct: SH2 domain of human p85 (amino acids 321-440); made in house; host or cells: E. coli (pGEX-3X)
The experiment is described as follows: SH2 domain / pY peptide binding assay (ELISA-based, 96 well plate), p85 SH2. As to conditions: for Ki: Ki calculated from IC50 by the expanded equation, Table II; for IC50: cloned human SH2 domain fusion protein, 0.1 uM biotinylated pY peptide, Table I. As to the method: The inhibitory activity of compounds at the different human SH2 domains was determined in vitro using SH2 domains expressed as fusion proteins in E. coli. The SH2 domains used herein were the human forms of the src SH2 domain, Grb2 SH2 domain, lck SH2 domain, fyn SH2 domain, SH-PTP2 SH2 domain, p85 SH2 domain and hcp SH2 domain.
Fusion proteins having the structure GST-X-SH2 were prepared as described in the GST gene fusion kit system available from Pharmacia (New Jersey). GST is the tagging sequence glutathione s-transferase epitope (SEQ ID NO: 8) for fyn, Grb2 and SH-PTP2 and is the tagging sequence glutathione s-transferase epitope (SEQ ID NO: 9) for p85. SH2 refers to the SH2 domains of fyn, Grb2, p85 and SH-PTP2 which were expressed and purified using glutathione Sepharose 4B (Pharmacia) according to "Current Protocols in Molecular Biology", ed. FM Ausubel et al., pub. John Wiley and Sons, Inc., (1995), p 16.7.1. X is an appropriate linker, preferably of 6 to 21 base pairs, used to keep the SH2 construct in frame and complement cloning. As such, the sequence of X is not critical. One skilled in the art can readily construct the appropriate linker. The DNA sequence encoding each GST-X-SH2 fusion protein was designed such that the indicated restriction sites (BamH1 and EcoRI) flank the SH2 region. The vector used in the instant experiments was the E. coli expression vector pGEX-2T (Pharmacia) for fyn, Grb2 and SH-PTP2, and pGEX-3X (Pharmacia) for p85. Each of these vectors result in SH2 constructs having additional C-terminal amino acids as described below.
Human p85 SH2 domain: The sequence encoding the SH2 domain of human p85 (amino acids 321-440) (Skolnik, E. et al., Cell 65, 83-90 (1991)) was cloned into the BamHI and EcoRI sites of the expression vector pGEX-3X. The SH2 domain including the additional C-terminal amino acids asparagine-serine-serine (SEQ ID NO: 11)was cloned by PCR techniques known to those skilled in the art to yield the expressed fusion protein GST-X-p85.
The binding assays for the SH2 domains and pY peptides were performed in an ELISA-based 96 well plate assay. In Millipore 96 well filter plates, hydrophilic Durapore® (pore size 0.65um Cat. No. MADVN6550), was added 2 ul (50% suspension) of Protein-G Sepharose (available from Pharmacia of N.J. Cat. No. 17-0618-01) and either 2 ul of 2 mg/ml of MAB178. (for gp120/SH2 domain fusion proteins src, lck and hcp) or 0.25 ul of anti-GST polyclonal antisera (available from Pharmacia of N.J.) (for GST/SH2 domain fusion proteins fyn, Grb2, p85 and SH-PTP2). 10 pmol of the subject SH2 domain fusion protein were added to their respective wells. The volume was brought to 100 ul with TBS-T (tris buffered saline plus 0.05% tween-20), incubated and shaken at room trmperature for 1 hr. then washed 1x with TBS-T (4°C). 90 ul of TBS-T were then added to each well. Specific pY biotinylated peptides were diluted to a concentration of 1.0 uM in TBS-T (these peptides can be obtained from Bachem Bioscience of Pennsylvania, Genosys Biotechnologies of Texas and California Peptide Research of California). 10 ul was aliquoted per well to yield a final concentration of 0.1 uM (approx, the Kd for each SH2 domain/peptide pair) and a final volume of 100 ul. The assay plates were incubated until equilibrium binding was attained (3 hr at 4°C with shaking). The assay plates were washed 2 X per well TBS-T (4°C), then 100 ul of SABC (Strepavidin biotinylated horseradish peroxidase complex, available from the Zymed corporation of California cat. no. 93-0043, 1 drop reagent A (streptavidin) and 1 drop of reagent B (AH-biotin conjugated-horseradish peroxidase) per 10 ml of TBS-T, incubated at 37°C for 30 minutes, then cooled to 4°C) was added per well, then incubated at 4°C for 30-60 minutes. The plates were then washed 4 X with TBS-T (4°C) (250 ul/well)/wash). 100 ul of 1 mg/ml OPD (o-phenyldiamine, Sigma Chemical Corporation, St. Louis Missouri) in Citrate Buffer was added per well. […]

T1 sequence (P27986 321-440): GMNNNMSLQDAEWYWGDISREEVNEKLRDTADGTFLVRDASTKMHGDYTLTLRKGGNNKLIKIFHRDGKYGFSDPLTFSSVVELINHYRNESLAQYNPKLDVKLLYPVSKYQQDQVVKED

Usually Ki stands for the equilibrium dissociation constant of an inhibitor or competing ligand from its target. For orientation: IC50 means the concentration needed to halve the response being measured. Lower therefore signals greater potency in that assay. As for `Cc1nnc(SCC2=C(C(=O)O)N3C(=O)[C@@H](NC(=O)C(N)c4ccc(C(=O)O)cc4)[C@H]3SC2)s1` (stereo partly drawn) [Compound 1, 7-[D,L-α-Amino-α-(4-carboxyphenyl)acetamido]-3-[2-(5-methyl-1,3,4-thiadiazolyl)thiomethyl]Δ^3-cephem-4-carboxylic Acid], the Ki is above 1000 µM and the IC50 was above 300 µM.
In the same order, the values of `Cc1ccc(C(=O)c2ccc(C(=O)c3ccc(CC=O)cc3)cc2)cc1` [Compound 4, 4-[4-(4-Methylbenzoyl)benzoyl]phenylacetaldehyde] are above 1000 µM and above 300 µM.
In the same order, the values of “4-acetamido-benzamido-trans-4-methyl-cyclohexyl-N-1-(amino-R-2-(methoxy methyl)-pyrrolidine) carboxamide [Compound 8]” are above 1000 µM and above 300 µM.
The corresponding values for `CCCCCCNC(=O)[C@H]1CC[C@H](CNC(=O)c2ccc([N+](=O)[O-])cc2)CC1` [Compound 7, 4-nitro-benzamido-trans-4-methyl-cyclohexyl-N-hexyl carboxamide] are above 1000 µM and above 300 µM.
Turning to `CCCNC(=O)[C@H]1CC[C@H](CNC(=O)/C=C/c2ccc(C=O)cc2)CC1` [Compound 9, 4-formyl-E-cinnamido-trans-4-methyl-cyclohexyl-N-(propyl) carboxamide], the inhibitory constant (Ki) was above 1000 µM and the IC50 is above 300 µM.
For the compound `Cc1nc2sc3c(c2c2[nH][nH]c(=O)c12)CCC1(C3)OCCO1` [Compound 3, 8,8-Ethylenedioxy-2,3,7,8,9,10-hexahydro-4-methyl-1H-benzo[b]thieno[2,3-b]pyrazolo[3,4-d]pyridin-3-one], the Ki is above 1000 µM and the IC50 is above 300 µM.
As for `Cc1nc2sc3c(c2c2[nH][nH]c(=O)c12)CCCC3` [Compound 10, 2,3,7,8,9,10-Hexahydro-4-methyl-1H-benzo[b]thieno[2,3-b]pyrazolo[3,4-d]pyridin-3-one], the Ki was above 1000 µM and the IC50 is above 300 µM.
The corresponding values for `N[C@@H](Cc1cc(Br)c(Oc2ccc(O)c(Cc3ccc(O)nn3)c2)c(Br)c1)C(=O)O` [Compound 2, L-3,5-Dibromo-3'-(6-oxo-3(1H)-pyridazinylmethyl)-thyronine] are above 1000 µM and above 300 µM.
Regarding `Cc1nc2sc3c(c2c2c1c(=O)[nH]n2C)CCC1(C3)OCCO1` [Compound 5, 1,4-Dimethyl-8,8-ethylenedioxy-2,3,7,8,9,10-hexahydro-1H-benzo[b]thieno[2,3-b]pyrazolo[3,4-d]pyridin-3-one], the Ki is above 1000 µM and the IC50 was above 300 µM.
